MIC data for six molecules are collected here from ChEMBL document CHEMBL1157376, “Plasmid-mediated quinolone resistance determinant QnrB4 identified in France in an Enterobacter cloacae clinical isolate coexpressing a QnrS1 determinant” (2007).

Molecules are shown by their SMILES. Converted amounts (≈) assume the structure as drawn. Where only a bound is given, the exact number is not on record here.

What all share (assay type): functional
Experiment [1] deals with Escherichia coli. Kind of experiment: Antibacterial activity against Escherichia coli TOP10 by E-test.
For experiment [2], the system named is Escherichia coli. In words: Antibacterial activity against Escherichia coli TOP10 containing pS1B plasmid expressing quinolone resistance determinant QnrS1 by E-test.
Experiment [3] relates to Escherichia coli. In words: Antibacterial activity against Escherichia coli TOP10 containing pS1A plasmid expressing quinolone resistance determinant QnrB4 by E-test.
The subject of another experiment is Enterobacter cloacae. In words: Antibacterial activity against Enterobacter cloacae S1 isolate expressing quinolone resistance determinant QnrB4 by E-test.

One may read the MIC as the smallest concentration in the dilution series that meets the test's criterion for growth inhibition. Higher therefore signals a less susceptible organism. Molecule `O=C(O)c1cn(C2CC2)c2cc(N3CCNCC3)c(F)cc2c1=O` [CIPROFLOXACIN] came in with an MIC in the experiment on Escherichia coli [1] of less than 0.01 µg/mL.

As for `COc1c(N2C[C@@H]3CCCN[C@@H]3C2)c(F)cc2c(=O)c(C(=O)O)cn(C3CC3)c12` [MOXIFLOXACIN], the results for the MIC in the experiment on Escherichia coli [1], with Escherichia coli [2] and against Escherichia coli [3] were less than 0.01 µg/mL, 0.25 µg/mL (≈ 0.623 µM) and 0.12 µg/mL (≈ 0.299 µM), respectively.

Consider `CCn1cc(C(=O)O)c(=O)c2ccc(C)nc21` [NALIDIXIC ACID], for which the MIC with Escherichia coli [1] is 1 µg/mL (≈ 4.31 µM); against Escherichia coli [2], 4 µg/mL (≈ 17.2 µM); against Escherichia coli [3], 2 µg/mL (≈ 8.61 µM); with Enterobacter cloacae, greater than 256 µg/mL.

With `CCn1cc(C(=O)O)c(=O)c2cc(F)c(N3CCNCC3)cc21` [NORFLOXACIN], the MIC against Escherichia coli [1] was 0.03 µg/mL (≈ 0.0939 µM); against Escherichia coli [2], 0.5 µg/mL (≈ 1.57 µM); in the experiment with Escherichia coli [3] it was 0.25 µg/mL (≈ 0.783 µM); against Enterobacter cloacae, greater than 32 µg/mL.

Take `CC1COc2c(N3CCN(C)CC3)c(F)cc3c(=O)c(C(=O)O)cn1c23` (stereo not drawn) [OFLOXACIN]: the MIC in the experiment with Escherichia coli [2] was 0.25 µg/mL (≈ 0.692 µM); in the experiment on Enterobacter cloacae, greater than 32 µg/mL.

For `C[C@@H]1CN(c2c(F)c(N)c3c(=O)c(C(=O)O)cn(C4CC4)c3c2F)C[C@H](C)N1` [SPARFLOXACIN], the MIC is less than 0.01 µg/mL with Escherichia coli [1], 0.25 µg/mL (≈ 0.637 µM) in the experiment with Escherichia coli [2], 0.03 µg/mL (≈ 0.0765 µM) against Escherichia coli [3] and greater than 32 µg/mL in the experiment on Enterobacter cloacae.
